ChEMBL document CHEMBL1145177, “Further naphthylcombretastatins. An investigation on the role of the naphthalene moiety” (J Med Chem, 2005)

Columns and labels:
[1] = test system: HL-60; test: Inhibitory concentration value against human colon carcinoma H-116 or human cancer HL-60 tumor cell line; assay type: functional, cell-based
[2] = test system: HT-29; test: Inhibitory concentration value against human colon adenocarcinoma HT-29 tumor cell line; assay type: functional, cell-based
[3] = target: Tubulin beta chain (Bos taurus, UniProt Q6B856); test: In vitro inhibitory concentration value against bovine brain tubulin polymerization
Tubulin beta chain, sequence (Q6B856 whole entry): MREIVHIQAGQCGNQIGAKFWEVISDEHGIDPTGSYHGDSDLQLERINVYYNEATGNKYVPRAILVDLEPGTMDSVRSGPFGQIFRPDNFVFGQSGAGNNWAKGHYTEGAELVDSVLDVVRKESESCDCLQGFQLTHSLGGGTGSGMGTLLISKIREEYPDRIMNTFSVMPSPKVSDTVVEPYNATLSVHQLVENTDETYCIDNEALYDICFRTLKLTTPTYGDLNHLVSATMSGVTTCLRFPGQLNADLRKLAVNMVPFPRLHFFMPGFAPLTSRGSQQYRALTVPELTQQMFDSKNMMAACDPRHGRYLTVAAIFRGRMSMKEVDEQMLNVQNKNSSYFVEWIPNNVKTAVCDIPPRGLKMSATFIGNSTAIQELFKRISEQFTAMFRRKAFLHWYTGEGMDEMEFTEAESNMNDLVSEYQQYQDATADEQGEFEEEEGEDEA

[4] = test system: A549; test: Inhibitory concentration value against human A-549 tumor cell line; assay type: functional, cell-based
[5] = Inhibitory concentration value against human MEL-28 or human cancer HeLa tumor cell line; assay type: functional, cell-based
[6] = test system: P388; test: Inhibitory concentration value against murine P-388 tumor cell line; assay type: functional, cell-based; settings: Mus musculus
[7] = test system: HCT-116; test: Inhibitory concentration value against human colon carcinoma H-116 tumor cell line; assay type: functional, cell-based
[8] = test system: SK-MEL-28; test: Inhibitory concentration value against human MEL-28 tumor cell line; assay type: functional, cell-based

| SMILES | IC50 [1] [nM] | IC50 [2] [nM] | IC50 [3] [nM] | IC50 [4] [nM] | IC50 [5] [nM] | IC50 [6] [nM] | IC50 [7] [nM] | IC50 [8] [nM] |
| --- | --- | --- | --- | --- | --- | --- | --- | --- |
| COc1cc(/C=C\c2ccc3ccccc3c2)cc([N+](=O)[O-])c1OC | 340 | 420 | 13000 | 590 | 110 | – | – | – |
| COc1cc(/C=C/c2ccc3c(c2)c2ccccc2n3C)cc(OC)c1OC | 340 | 450 | > 30000 | 530 | 330 | – | – | – |
| COc1cc(/C=C\c2ccc3c(ccn3C)c2)cc(OC)c1OC | 330 | – | 2000 | – | 250 | – | – | – |
| COc1cc(/C=C/c2ccc3ccccc3c2)cc([N+](=O)[O-])c1OC | > 10000 | > 10000 | > 40000 | > 10000 | 3200 | – | – | – |
| COc1cc(/C=C\c2ccc3c(c2)c2ccccc2n3C)cc(OC)c1OC | > 10000 | > 10000 | 6000 | > 10000 | 3100 | – | – | – |
| COc1ccc(/C=C\c2ccc3ccccc3c2)cc1O | 16 | 32 | 3000 | 3 | 3 | 3 | 16 | 3 |
| COc1cc(/C=C\c2ccc(N(C)C)c(N)c2)cc(OC)c1OC | 3 | 4 | > 30000 | 4 | 3 | – | – | – |
| COc1cc2ccc(CCc3ccc4ccccc4c3)cc2cc1O | 3590 | 3590 | – | 3590 | 3590 | 3590 | 3590 | 3590 |
| COc1cc(/C=C\c2ccc3ccccc3c2)cc(OC)c1OC [NAPHTHYLCOMBRETASTATIN] | > 5000 | – | 10000 | – | 20 | 20 | 20 | 20 |
| COc1cc(/C=C\c2ccc3[nH]ccc3c2)cc(OC)c1OC | 35 | 35 | 25000 | 390 | 34 | – | – | – |
| COc1cc(/C=C\c2ccc3ccccc3c2)ccc1F | – | 450 | > 30000 | 450 | – | 450 | 450 | 450 |
| COc1cc(/C=C/c2c[nH]c3ccccc23)cc(OC)c1OC | 3230 | 3230 | – | 3230 | 3230 | 3230 | – | – |
| COc1cc(/C=C\c2ccc3ccccc3c2)cc(N)c1OC | 330 | 330 | – | 1640 | 1640 | 1640 | – | – |
| COc1cc(/C=C/c2occc2C)cc(OC)c1OC | 3650 | 3650 | – | 3650 | 3650 | 3650 | – | – |
| COc1c(N)cc(/C=C/c2ccc3ccccc3c2)cc1N | > 5000 | > 5000 | – | > 5000 | > 5000 | > 5000 | – | – |
| COc1cc(/C=C\c2c[nH]c3ccccc23)cc(OC)c1OC | 3230 | 3230 | – | 3230 | 3230 | 3230 | – | – |
| COc1c([N+](=O)[O-])cc(/C=C\c2ccc3ccccc3c2)cc1[N+](=O)[O-] | > 5000 | > 5000 | – | > 5000 | > 5000 | > 5000 | – | – |

| SMILES | IC50 [1] [nM] | IC50 [2] [nM] | IC50 [3] [nM] | IC50 [4] [nM] | IC50 [5] [nM] | IC50 [6] [nM] | IC50 [7] [nM] | IC50 [8] [nM] |
| --- | --- | --- | --- | --- | --- | --- | --- | --- |
| CN(C)c1c([N+](=O)[O-])cc(/C=C/c2ccc3ccccc3c2)cc1[N+](=O)[O-] | > 5000 | > 5000 | – | > 5000 | > 5000 | > 5000 | – | – |
| COc1ccc(/C=C/c2cc(OC)c3ccccc3c2)cc1O | 3620 | 3620 | – | 3620 | 3620 | 3620 | 3620 | 3620 |
| COc1cc(/C=C/c2ccc3[nH]ccc3c2)cc(OC)c1OC | 380 | 280 | > 30000 | 470 | 250 | – | – | – |
| COc1cc(/C=C/c2ccc(N(C)C)c(N)c2)cc(OC)c1OC | 1520 | 300 | – | 1520 | 1520 | 1520 | – | – |
| COc1cc(/C=C\c2ccc(N(C)C)c([N+](=O)[O-])c2)cc(OC)c1OC | > 5000 | > 5000 | – | > 5000 | > 5000 | > 5000 | – | – |
| COc1cc(/C=C/c2ccc3ccccc3c2)cc(N)c1OC | 3150 | 6000 | > 40000 | 2150 | 460 | – | – | – |
| COc1cc(/C=C/c2ccc3c(ccn3C)c2)cc(OC)c1OC | 27 | – | 30000 | – | 24 | – | – | – |
| COc1ccc(/C=C\c2cc(OC)c3ccccc3c2)cc1O | 3620 | 3620 | 16000 | 40 | 40 | 40 | 40 | 40 |
| COc1c([N+](=O)[O-])cc(/C=C/c2ccc3ccccc3c2)cc1[N+](=O)[O-] | > 5000 | > 5000 | – | > 5000 | > 5000 | > 5000 | – | – |
| COc1cc(/C=C/c2cn(C(C)=O)c3ccccc23)cc(OC)c1OC | > 5000 | > 5000 | – | > 5000 | > 5000 | > 5000 | – | – |
| COc1cc(/C=C/c2ccc(N(C)C)c([N+](=O)[O-])c2)cc(OC)c1OC | > 5000 | > 5000 | – | > 5000 | > 5000 | > 5000 | – | – |
| COc1cc(CCc2ccc3ccccc3c2)cc(OC)c1OC | 310 | 310 | – | 310 | 310 | 310 | 310 | 310 |
| COc1cc(/C=C\c2cn(C)c3ccccc23)cc(OC)c1OC | 3090 | 3090 | – | 3090 | 3090 | 3090 | – | – |
| COc1cccc(/C=C\c2ccc3ccccc3c2)c1 | – | 1920 | > 30000 | 1920 | – | 1920 | 1920 | 1920 |
| COc1cc(/C=C/c2ccc3ccccc3c2)cc(OC)c1OC | 390 | 390 | – | 390 | 390 | 390 | 390 | 390 |
| COc1cc(/C=C/c2ccc3ccccc3c2)cc(NC(C)=O)c1OC | 2880 | > 5000 | – | > 5000 | > 5000 | > 5000 | – | – |
| COc1cc(/C=C\c2ccc3ccccc3c2)cc(NC(C)=O)c1OC | > 5000 | > 5000 | – | > 5000 | > 5000 | > 5000 | – | – |
